The source of these data is BindingDB's records for doi:10.3109/14756366.2013.777334 (S.G.S.I.T.S., 2014).

Assay in all cases: CA Inhibition Assay
Common to all, as to conditions: pH 7.5; 4 °C

The target of one assay is Carbonic anhydrase 12 (Homo sapiens, UniProt O43570). How it is done:
(§1) An applied photophysics stopped-flow instrument has been used for assaying the CA catalyzed CO2 hydration activity. […] The CO2 concentrations ranged from 1.7 to 17mM for the determination of the kinetic parameters and inhibition constants. […] The uncatalyzed rates were determined in the same manner and subtracted from the total observed rates. Stock solutions of inhibitor (0.1mM) were prepared in distilled-deionized water and dilutions up to 0.01nM were done thereafter with distilled deionized water.

The next assay concerns the target Carbonic anhydrase 1 (Homo sapiens, UniProt P00915). The procedure: as §1
Another assay addresses Carbonic anhydrase 2 (Homo sapiens, UniProt P00918). The procedure:
as §1

Chain of Carbonic anhydrase 1 (P00915 whole entry): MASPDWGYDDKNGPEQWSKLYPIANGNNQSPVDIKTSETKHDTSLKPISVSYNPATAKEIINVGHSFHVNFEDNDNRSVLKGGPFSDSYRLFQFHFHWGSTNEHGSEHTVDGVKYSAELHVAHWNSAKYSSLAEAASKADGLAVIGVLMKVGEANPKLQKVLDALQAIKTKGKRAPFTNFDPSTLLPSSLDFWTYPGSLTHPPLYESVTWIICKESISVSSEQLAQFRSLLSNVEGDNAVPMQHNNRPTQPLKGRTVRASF
Chain of Carbonic anhydrase 12 (O43570 whole entry): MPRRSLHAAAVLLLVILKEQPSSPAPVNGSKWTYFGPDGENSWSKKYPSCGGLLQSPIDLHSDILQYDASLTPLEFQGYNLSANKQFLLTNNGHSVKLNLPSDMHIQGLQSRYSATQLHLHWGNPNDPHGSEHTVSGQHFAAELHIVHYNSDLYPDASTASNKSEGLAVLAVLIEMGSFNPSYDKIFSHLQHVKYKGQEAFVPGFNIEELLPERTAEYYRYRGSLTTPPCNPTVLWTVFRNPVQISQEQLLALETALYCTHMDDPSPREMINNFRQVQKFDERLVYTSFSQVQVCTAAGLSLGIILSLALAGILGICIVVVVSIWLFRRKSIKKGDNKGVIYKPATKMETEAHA

One may read the Ki as a dissociation constant, usually derived from enzyme kinetics or from competition with a known ligand. High values mean weaker binding, low ones tighter binding. `Cc1cc(=O)oc2cc(O)cc(O)c12` [Coumarin derivative, 1b]: the results for the Ki on Carbonic anhydrase 12 and at Carbonic anhydrase 1 were 6.4 µM and 8.4 µM, respectively.

With `Cc1cc(=O)oc2c1ccc1ccccc12` [4-Methyl-2H-benzo[h]chromen-2-one (4)], the Ki at Carbonic anhydrase 2 was above 200 µM; at Carbonic anhydrase 12, 5.5 µM; at Carbonic anhydrase 1, 9 µM.

On to `Cc1cc(=O)oc2c(O)c(O)ccc12` [7,8-Dihydroxy-4-methyl-2H-chromen-2-one (3)], for which the values for the Ki on Carbonic anhydrase 2, on Carbonic anhydrase 12 and on Carbonic anhydrase 1 were above 200 µM, 6.6 µM and 8.7 µM, respectively.

For `Cc1cc(=O)oc2cc(O)ccc12` [4-Methyl-7-hydroxycoumarin], the values for the Ki on Carbonic anhydrase 2, on Carbonic anhydrase 12 and on Carbonic anhydrase 1 were above 200 µM, 4.3 µM and 4.8 µM, respectively.

Take `Cc1cc(=O)oc2cc3ccccc3cc12` [4-Methyl-2H-benzo[g]chromen-2-one (5)]: the results for the Ki on Carbonic anhydrase 2, at Carbonic anhydrase 12 and at Carbonic anhydrase 1 were above 200 µM, 3.3 µM and 8.2 µM, respectively.
